In patent US11357749B2, “Methods for treating neutropenia” (Enzychem Lifesciences Corporation, priority 2014, dated 2022):

System: splenic nodules, primitive progenitor cells and megakaryocytes
Experiment: Colony forming units in spleen (CFUs) assay in heavily irradiated mice
Type: in vivo
Details: 50 mg/kg/d i.p. or p.o.
Procedure: In order to determine the in vivo effect of PLAG on the recovery of hematopoiesis, a CFUs assay is performed in heavily irradiated mice.

CCCCC/C=C\C/C=C\CCCCCCCC(=O)OC(COC(C)=O)COC(=O)CCCCCCCCCCCCCCC (racemic) [PLAG, 1-palmitoyl-2-linoleoyl-3-acetylglycerol]
number of splenic nodules and numbers of primitive progenitor cells and megakaryocytes: marked increase
